Test results: paper PMC8119466, “A screen of FDA-approved drugs identifies inhibitors of protein tyrosine phosphatase 4A3 (PTP4A3 or PRL-3)” (Scientific Reports, 2021)

Assays:
Type in all cases: biochemical
Conditions in all cases: FDA-approved drug screen; compared to DMSO
[1] = target: T1, recombinant PRL-1 (Homo sapiens, UniProt Q93096); assay: In vitro phosphatase assay (DiFMUP hydrolysis), PRL-1; note: test concentration or dose not given here
T1 construct: 6xHis (N, cleaved yes); made in house; host or cells: E. coli One Shot BL21 Star
T1 sequence (Q93096 1-173): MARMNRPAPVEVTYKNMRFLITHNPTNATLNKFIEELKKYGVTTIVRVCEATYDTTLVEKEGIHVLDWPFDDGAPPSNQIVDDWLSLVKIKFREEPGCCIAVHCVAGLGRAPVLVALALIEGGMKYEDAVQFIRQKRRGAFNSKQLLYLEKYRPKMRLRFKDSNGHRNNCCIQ

[2] = target: T2, recombinant PRL-2 (Homo sapiens, UniProt Q12974); assay: In vitro phosphatase assay (DiFMUP hydrolysis), PRL-2;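 note: PRL-2 activity read as DiFMUP hydrolysis after 20 min at room temperature with drug, enzyme first pre-reduced at 4 °C for 20 min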
T2 construct: 6xHis (N, cleaved yes); made in house; host or cells: E. coli One Shot BL21 Star
T2 sequence (Q12974 1-167): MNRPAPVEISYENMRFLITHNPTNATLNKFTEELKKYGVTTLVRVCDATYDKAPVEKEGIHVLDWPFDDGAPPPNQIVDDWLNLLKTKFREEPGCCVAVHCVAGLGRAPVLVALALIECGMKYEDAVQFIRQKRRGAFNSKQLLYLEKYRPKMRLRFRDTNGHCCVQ

[3] = target: T3, recombinant PRL-3 (Homo sapiens, UniProt O75365); assay: In vitro phosphatase assay (DiFMUP hydrolysis), PRL-3; note: test concentration or dose not given here
T3 construct: 6xHis (N, cleaved yes); made in house; host or cells: E. coli One Shot BL21 Star
T3 sequence (O75365 whole entry): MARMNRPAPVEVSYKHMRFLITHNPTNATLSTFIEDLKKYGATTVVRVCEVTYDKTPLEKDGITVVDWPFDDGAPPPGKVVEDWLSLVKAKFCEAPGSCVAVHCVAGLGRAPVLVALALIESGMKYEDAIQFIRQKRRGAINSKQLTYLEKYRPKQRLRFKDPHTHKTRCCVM

Structure (SMILES): CC[C@H](Nc1ncnc2[nH]cnc12)c1nc2cccc(F)c2c(=O)n1-c1ccccc1 [CAL-101 (Idelalisib, GS-1101)]
- % Phosphatase Activity (compared to DMSO) PRL-1 [1]: 102%
- % Phosphatase Activity (compared to DMSO) PRL-2 [2]: 104%
- % Phosphatase Activity (compared to DMSO) PRL-3 [3]: 77%

Structure (SMILES): NC(=O)c1cc(N2CC2)c([N+](=O)[O-])cc1[N+](=O)[O-] [CB1954]
- % Phosphatase Activity (compared to DMSO) PRL-1 [1]: 100%
- % Phosphatase Activity (compared to DMSO) PRL-2 [2]: 74%
- % Phosphatase Activity (compared to DMSO) PRL-3 [3]: 105%

Structure (SMILES): CC(C)C[C@H](NC(=O)[C@@H](NC(=O)c1cccc(-c2ccccc2)n1)[C@@H](C)O)B(O)O [CEP-18770 (Delanzomib)]
- % Phosphatase Activity (compared to DMSO) PRL-1 [1]: 103%
- % Phosphatase Activity (compared to DMSO) PRL-2 [2]: 98%
- % Phosphatase Activity (compared to DMSO) PRL-3 [3]: 82%

Structure (SMILES): C=CC(=O)Nc1cccc(Nc2nc(Nc3ccc(N4CCN(C(C)=O)CC4)cc3OC)ncc2C(F)(F)F)c1 [CO-1686 (AVL-301)]
- % Phosphatase Activity (compared to DMSO) PRL-1 [1]: 93%
- % Phosphatase Activity (compared to DMSO) PRL-2 [2]: 82%
- % Phosphatase Activity (compared to DMSO) PRL-3 [3]: 98%

Structure (SMILES): C#Cc1cccc(Nc2ncnc3cc(OC)c(OCCCCCCC(=O)NO)cc23)c1 [CUDC-101]
- % Phosphatase Activity (compared to DMSO) PRL-1 [1]: 94%
- % Phosphatase Activity (compared to DMSO) PRL-2 [2]: 87%
- % Phosphatase Activity (compared to DMSO) PRL-3 [3]: 79%

Structure (SMILES): O=C(O)c1ccc2c(c1)nc(Nc1cccc(Cl)c1)c1ccncc12 [CX-4945 (Silmitasertib)]
- % Phosphatase Activity (compared to DMSO) PRL-1 [1]: 85%
- % Phosphatase Activity (compared to DMSO) PRL-2 [2]: 81%
- % Phosphatase Activity (compared to DMSO) PRL-3 [3]: 86%

Structure (SMILES): CO[C@H]1C(=O)[C@]2(C)[C@@H](OC)C[C@H]3OC[C@@]3(OC(C)=O)[C@H]2[C@H](OC(=O)c2ccccc2)[C@]2(O)C[C@H](OC(=O)[C@H](O)[C@@H](NC(=O)OC(C)(C)C)c3ccccc3)C(C)=C1C2(C)C [Cabazitaxel]
- % Phosphatase Activity (compared to DMSO) PRL-1 [1]: 88%
- % Phosphatase Activity (compared to DMSO) PRL-2 [2]: 107%
- % Phosphatase Activity (compared to DMSO) PRL-3 [3]: 89%

Structure (SMILES): O=C([O-])C(O)[C@H](O)[C@@H](O)[C@H](O)[C@H](O)CO.O=C([O-])C(O)[C@H](O)[C@@H](O)[C@H](O)[C@H](O)CO.[Ca+2] (stereo partly drawn) [Calcium Gluceptate]
- % Phosphatase Activity (compared to DMSO) PRL-1 [1]: 114%
- % Phosphatase Activity (compared to DMSO) PRL-2 [2]: 104%
- % Phosphatase Activity (compared to DMSO) PRL-3 [3]: 107%

Structure (SMILES): Nc1nc(=O)c2c([nH]1)NC[C@H](CNc1ccc(C(=O)N[C@@H](CCC(=O)[O-])C(=O)[O-])cc1)N2C=O.[Ca+2] [Calcium Levofolinate]
- % Phosphatase Activity (compared to DMSO) PRL-1 [1]: 96%
- % Phosphatase Activity (compared to DMSO) PRL-2 [2]: 101%
- % Phosphatase Activity (compared to DMSO) PRL-3 [3]: 105%

Structure (SMILES): CN(C)C(=O)COC(=O)Cc1ccc(OC(=O)c2ccc(NC(=N)N)cc2)cc1 [Camostat Mesilate]
- % Phosphatase Activity (compared to DMSO) PRL-1 [1]: 98%
- % Phosphatase Activity (compared to DMSO) PRL-2 [2]: 138%
- % Phosphatase Activity (compared to DMSO) PRL-3 [3]: 94%

Structure (SMILES): CCCCCOC(=O)Nc1nc(=O)n([C@@H]2O[C@H](C)[C@@H](O)[C@H]2O)cc1F [Capecitabine]
- % Phosphatase Activity (compared to DMSO) PRL-1 [1]: 108%
- % Phosphatase Activity (compared to DMSO) PRL-2 [2]: 123%
- % Phosphatase Activity (compared to DMSO) PRL-3 [3]: 97%

Structure (SMILES): C[C@H](CS)C(=O)N1CCC[C@H]1C(=O)O [Captopril]
- % Phosphatase Activity (compared to DMSO) PRL-1 [1]: 90%
- % Phosphatase Activity (compared to DMSO) PRL-2 [2]: 99%
- % Phosphatase Activity (compared to DMSO) PRL-3 [3]: 82%

Structure (SMILES): C[N+](C)(C)CCOC(N)=O [Carbachol]
- % Phosphatase Activity (compared to DMSO) PRL-1 [1]: 91%
- % Phosphatase Activity (compared to DMSO) PRL-2 [2]: 100%
- % Phosphatase Activity (compared to DMSO) PRL-3 [3]: 82%

Structure (SMILES): COC(=O)N/N=C/c1c[n+]([O-])c2ccccc2[n+]1[O-] [Carbadox]
- % Phosphatase Activity (compared to DMSO) PRL-1 [1]: 96%
- % Phosphatase Activity (compared to DMSO) PRL-2 [2]: 103%
- % Phosphatase Activity (compared to DMSO) PRL-3 [3]: 99%

Structure (SMILES): NC(=O)N1c2ccccc2C=Cc2ccccc21 [Carbamazepine]
- % Phosphatase Activity (compared to DMSO) PRL-1 [1]: 98%
- % Phosphatase Activity (compared to DMSO) PRL-2 [2]: 112%
- % Phosphatase Activity (compared to DMSO) PRL-3 [3]: 80%

Structure (SMILES): CC1(C)[C@@H](OC(=O)CCC(=O)O)CC[C@]2(C)[C@H]3C(=O)C=C4[C@@H]5C[C@@](C)(C(=O)O)CC[C@]5(C)CC[C@@]4(C)[C@]3(C)CC[C@@H]12 [Carbenoxolone Sodium]
- % Phosphatase Activity (compared to DMSO) PRL-1 [1]: 85%
- % Phosphatase Activity (compared to DMSO) PRL-2 [2]: 73%
- % Phosphatase Activity (compared to DMSO) PRL-3 [3]: 84%

Structure (SMILES): C[C@@](Cc1ccc(O)c(O)c1)(NN)C(=O)O [Carbidopa]
- % Phosphatase Activity (compared to DMSO) PRL-1 [1]: 68%
- % Phosphatase Activity (compared to DMSO) PRL-2 [2]: 92%
- % Phosphatase Activity (compared to DMSO) PRL-3 [3]: 94%

Structure (SMILES): CCOC(=O)n1ccn(C)c1=S [Carbimazole]
- % Phosphatase Activity (compared to DMSO) PRL-1 [1]: 103%
- % Phosphatase Activity (compared to DMSO) PRL-2 [2]: 114%
- % Phosphatase Activity (compared to DMSO) PRL-3 [3]: 78%
